Square brackets hold non-standard residues; d marks the D form. Peptide text beside a SMILES is read from it. * marks the point of attachment. Nle = CCCC[C@H](N)C(=O)O; Cbz = O=C(OCc1ccccc1)*
Experiments:
Format in all cases: cell-based, human
[1] = tested on: fibrocystin cleavage in HEK-293 cells; experiment: Luciferase reporter assay of fibrocystin cleavage (pFC-GV / pG5-luc) in HEK-293 cells; settings: for cleavage of fibrocystin or stability of proteolytic fragments (luciferase activity): HEK-293, 12 hours
Procedure: (§1) Reporter Gene Assays—mIMCD-3 cells, HEK-293 cells, or HeLa cells were plated in 6-well dishes (3×10^5 cells/well) and cotransfected with 0.05 μg phRL-TK(Int−) encoding Renilla luciferase (Promega, Madison, Wis.), 0.1 μg Photinus luciferase reporter plasmids, and 0.01-0.3 μg effector plasmids. Luciferase assays were performed as described previously (Hiesberger, 2004). Relative luciferase activity was calculated as the ratio of Photinus and Renilla luciferase.
(§2) FIG. 4 A is an image of a gel illustrating mIMCD3/FC cells were grown for 4 days and incubated with 0.1 μM thapsigargin (lane 2), 5 mM caffeine (lane 3), 75 μM dantrolene (lane 5), 200 μM ruthenium red (lane 7), or no additions (lanes 1, 4 and 6). After 2 hours, media were replaced with media lacking serum but containing the same supplements, and, in addition, 10 nM mifeprisone. Cell lysates were prepared after 24 hours and analyzed by immunoblotting using anti-V5 antibody. FIG. 4B is a graph of mIMCD-3 cells were transfected with 0.2 μg pG5-luc and either 0.2 μg pFC-GV or 0.2 μg pLDLR-GV. After 24 hours, cells were incubated in serum-free media in the presence or absence of 75 μM dantrolene. Relative luciferase activity was determined after 48 h. Data presented are mean ±SE of three separate transfections. The fibrocystin/Gal4-VP16 fusion protein is shown schematically below. Shaded box indicates the transmembrane segment; filled boxes indicate the N-terminal signal sequence and the C-terminal Gal4-VP16 fusion protein. FIG. 4C is an image of a gel illustrating HEK-293 cells transfected with 6 μg pFC-V5, and 8 hours later incubated in serum-free media containing 1-8 mM caffeine, 0.5 μM calphostin, or no additions. Cells were lysed after 16 h, and extracts were analyzed by immunoblotting using anti-V5 antibody. FIG. 4D is a graph of HEK-293 cells transfected with 0.2 μg pFC-GV and 0.2 μg pG5-luc. After 24 hours, cells were incubated in serum-free media containing 5 mM caffeine or no additions. Luciferase activity was measured after 12 hours. Data presented are mean ±SE of three separate transfections. FIG. 4E is an image of a gel illustrating HEK-293 cells stably expressing the m3 muscarinic receptor (lanes 1-4) and untransfected HEK-293 cells (lanes 5-8) were transfected with 6 μg pFC-V5. […] Cells were lysed after 16 hours, and extracts were analyzed by immunoblotting using anti-V5 antibody.
To quantitatively measure fibrocystin cleavage, a luciferase assay was developed that was similar to the ones employed to quantify the proteolytic cleavage of amyloid precursor protein (APP) and low density lipoprotein receptor related protein-1 (LRP1) (Cao, 2001; May, 2003). A plasmid (FC-GV) encoding the synthetic transcription factor Gal4-VP16 fused to the C-terminus of fibrocystin was generated. Proteolytic cleavage of the fibrocystin fusion protein releases Gal4-VP16, which translocates to the nucleus and activates a Gal4-responsive luciferase reporter gene (pG5-luc). Therefore, luciferase expression correlates with fibrocystin cleavage.
To quantify fibrocystin proteolysis in response to intracellular Ca^2+ release, the luciferase reporter assay was employed. HEK-293 cells were cotransfected with the plasmids pFC-GV and pG5-luc and incubated with either 5 mM caffeine or vehicle (as a control).
FIG. 5A is an image of a gel that illustrates HEK-293 cells were transfected with 6 μg pFC-V5.

[2] = tested on: fibrocystin cleavage in mIMCD3/FC cells; experiment: Immunoblot (anti-V5) of fibrocystin proteolytic fragments in mIMCD3/FC cells; settings: 30 hours; for cleavage of fibrocystin or stability of proteolytic fragments: FIG. 9
[3] = tested on: fibrocystin cleavage in HEK-293 cells; experiment: Immunoblot (anti-V5) of fibrocystin proteolysis in HEK-293 cells transfected with pFC-V5
Procedure: as §2
FIG. 5A is an image of a gel that illustrates HEK-293 cells were transfected with 6 μg pFC-V5. […] Fourteen hours later, cellular proteins were extracted and analyzed by immunoblotting using anti-V5 antibody. FIG. 5B is an image of a gel mIMCD3/FC cells were grown for 4 days, and expression of fibrocystin was induced by addition of 10 nM mifepristone. After 24 hours, media were supplemented with 0.1, 0.5, or 1 μM calphostin C. Thirty hours later, cells were harvested, and proteins were analyzed by immunoblotting using anti-V5 antibody. FIG. 5C is an image of a gel illustrating HEK-293 cells were transfected with 3 μg pFC-V5 and either 3 μg of the empty vector pEF-neo (lanes 1 and 3) or 3 μg pEF-PKCαA/E (lanes 2 and 4). After 12 hours media were changed to media containing 10% FCS (lanes 1 and 2) or 0.2% BSA (lanes 3 and 4). Forty-eight hours later, cells were harvested, and proteins were subjected to immunoblotting using anti-V5 antibody. FIG. 5D is a plot illustrating HEK-293 cells transfected with 0.2 μg pG5-luc and 0.2 μg pFC-GV, pLDLR-GV and/or pEF-PKCαA/E. After 16 hours, media were changed to serum-free media containing 100 nM PMA or 500 μM Br-cAMP. Twenty-four hours later, cells were harvested, and relative luciferase activities were determined. Data are the mean ±SE of three independent transfections.

[4] = tested on: fibrocystin cleavage in mIMCD3/FC cells; experiment: Immunoblot (anti-V5) of fibrocystin proteolytic fragments in mIMCD3/FC cells; settings: FIG. 4A
Procedure: Cell Culture, Transfection and Generation of Stable Cell Lines—mIMCD-3 cells were plated at a density of 500,000 cells/100 mm dish, and 24 hours and 48 hours later the cells were transfected with 2 μg of pFC-V5 using Effectene (Qiagen, Valencia, Calif.). Cells were incubated for an additional 72 hours and lysed in 100 μl buffer containing Tris-buffered saline, 0.5% Triton X-100, protease inhibitor cocktail (Hoffmann-La Roche Inc., Indianapolis, Ind.). Twenty μl of the lysates were analyzed by SDS-PAGE, and immunoblot analysis was performed using HRP-conjugated anti-V5 as described previously (Hiesberger, 2005). mIMCD3/FC and mIMCD3/EGFP cell lines with inducible expression of fibrocystin and EGFP, respectively, were produced by transfecting mIMCD-3 cells with 1.5 μg pSwitch and either 1.5 μg pGeneFC or 1.5 μg pGeneEGFP. Stable transfectants were isolated after 14 days of growth in media containing hygromycin (350 μg/ml) and zeocin (300 μg/ml). To test for inducible expression, cells derived from individual clones were treated with mifepristone (10 nM) for 48 h or left untreated, and proteins were analyzed by immunoblotting using HRP-conjugated anti-FLAG. HEK-293 cells stably transfected with the muscarinic acetylcholine receptor M3 were a generous gift from Trevor Shuttleworth (University of Rochester Medical center) (Yang, 1995).
To further investigate the proteolytic cleavage of fibrocystin, mIMCD3/FC cells were generated, in which the expression of recombinant human fibrocystin can be induced by treatment with mifepristone.
FIG. 4 A is an image of a gel illustrating mIMCD3/FC cells were grown for 4 days and incubated with 0.1 μM thapsigargin (lane 2), 5 mM caffeine (lane 3), 75 μM dantrolene (lane 5), 200 μM ruthenium red (lane 7), or no additions (lanes 1, 4 and 6). After 2 hours, media were replaced with media lacking serum but containing the same supplements, and, in addition, 10 nM mifeprisone. Cell lysates were prepared after 24 hours and analyzed by immunoblotting using anti-V5 antibody. FIG. 4B is a graph of mIMCD-3 cells were transfected with 0.2 μg pG5-luc and either 0.2 μg pFC-GV or 0.2 μg pLDLR-GV. After 24 hours, cells were incubated in serum-free media in the presence or absence of 75 μM dantrolene. Relative luciferase activity was determined after 48 h. Data presented are mean ±SE of three separate transfections. The fibrocystin/Gal4-VP16 fusion protein is shown schematically below. […] Cells were lysed after 16 h, and extracts were analyzed by immunoblotting using anti-V5 antibody. […] Luciferase activity was measured after 12 hours. […] Cells were lysed after 16 hours, and extracts were analyzed by immunoblotting using anti-V5 antibody. […]

[5] = tested on: fibrocystin cleavage in mIMCD-3 cells; experiment: Luciferase reporter assay of fibrocystin cleavage (pFC-GV / pG5-luc) in mIMCD-3 cells; settings: 75 μM dantrolene, serum-free media, luciferase after 48 h, FIG. 4B
Procedure: as §1
FIG. 4 A is an image of a gel illustrating mIMCD3/FC cells were grown for 4 days and incubated with 0.1 μM thapsigargin (lane 2), 5 mM caffeine (lane 3), 75 μM dantrolene (lane 5), 200 μM ruthenium red (lane 7), or no additions (lanes 1, 4 and 6). […] Cell lysates were prepared after 24 hours and analyzed by immunoblotting using anti-V5 antibody. […] Relative luciferase activity was determined after 48 h. […] Cells were lysed after 16 h, and extracts were analyzed by immunoblotting using anti-V5 antibody. […] Luciferase activity was measured after 12 hours. […] Cells were lysed after 16 hours, and extracts were analyzed by immunoblotting using anti-V5 antibody.
To quantitatively measure fibrocystin cleavage, a luciferase assay was developed that was similar to the ones employed to quantify the proteolytic cleavage of amyloid precursor protein (APP) and low density lipoprotein receptor related protein-1 (LRP1) (Cao, 2001; May, 2003). […]

[6] = 0.1, 0.5, or 1 μM calphostin C 24 hours after induction, FIG. 5B

Compound: NCCOB(c1ccccc1)c1ccccc1 [2-APB]
- cleavage of fibrocystin or stability of proteolytic fragments (luciferase activity) ([1]; 50 μg/ml 2-APB, FIG. 11): modulated

Compound: CCCC[C@@H](C=O)NC(=O)[C@H](CC(C)C)NC(=O)[C@H](CC(C)C)NC(C)=O [ALLN, Ac-Leu-Leu-Nle-CHO] (Ac-Leu-Leu-[Nle]-aldehyde)
- cleavage of fibrocystin or stability of proteolytic fragments ([2]; 10 μM ALLN): altered
- abundance of fibrocystin proteolytic fragments ([3]; 10 μM ALLN versus vehicle, 14 hours, HEK-293, FIG. 8): alteration of the abundance

Compound: C=C1[C@@H](C)[C@H]2[C@H](Cc3ccccc3)NC(=O)[C@]23OC(=O)/C=C/[C@H](O)CCC[C@@H](C)C/C=C/[C@H]3[C@@H]1O [Cytochalasin B]
- cleavage of fibrocystin or stability of proteolytic fragments (luciferase activity) ([1]; 10 μM Cytochalasin B, FIG. 11): modulated

Compound: C/C1=C/C(=O)O[C@@H]2C[C@@H](CC[C@H](C)/C=C\CC1)O[C@@](O)([C@@H]1CSC(=O)N1)C2 [Latrunculin B]
- cleavage of fibrocystin or stability of proteolytic fragments (luciferase activity) ([1]; 2 μg/ml Latrunculin, FIG. 11): modulated

Compound: CC(C)C[C@@H](C=O)NC(=O)[C@H](CC(C)C)NC(=O)[C@H](CC(C)C)NC(=O)OCc1ccccc1 [MG-132, Carbobenzoxy-L-leucyl-L-leucyl-L-leucinal] (Cbz-Leu-Leu-Leu-aldehyde)
- fibrocystin cleavage products ([2]; 2 μM MG-132 in combination with 20 μM ATP, FIG. 7): increased presence of cleavage products
- fibrocystin cleavage products ([2]; 2 μM MG-132 versus vehicle, FIG. 6): increase of fibrocystin cleavage products

Compound: COC(=O)Nc1nc2ccc(C(=O)c3cccs3)cc2[nH]1 [Nocodazole]
- cleavage of fibrocystin or stability of proteolytic fragments (luciferase activity) ([1]; 10 μg/ml Nocodazole, FIG. 11): modulated

Compound: CCCCCCCCCCCCCC(=O)O[C@@H]1[C@@H](C)[C@@]2(O)[C@@H](C=C(CO)C[C@]3(O)C(=O)C(C)=C[C@@H]23)[C@@H]2C(C)(C)[C@]12OC(C)=O [PMA, phorbol 12-myristate 13-acetate]
- proteolytic cleavage of fibrocystin ([3]; 100 nM PMA, HEK-293, 14 hours, FIG. 5A): marked increase
- total expression of fibrocystin (CMV promoter) ([3]; 100 nM PMA, HEK-293, FIG. 5A): increased
- increase of luciferase activity ([1]; 100 nM PMA, serum-free media, HEK-293, 24 hours, FIG. 5D): 27 fold

Compound: CC(=O)O[C@H]1C(=O)[C@@]2(C)[C@H]([C@H](OC(=O)c3ccccc3)[C@]3(O)C[C@H](OC(=O)[C@H](O)[C@@H](NC(=O)c4ccccc4)c4ccccc4)C(C)=C1C3(C)C)[C@]1(OC(C)=O)CO[C@@H]1C[C@@H]2O [Taxol]
- cleavage of fibrocystin or stability of proteolytic fragments (luciferase activity) ([1]; Taxol in serum-free media, FIG. 10): modulated

Compound: CC(C)C[C@@H](C=O)NC(=O)[C@H](CC(C)C)NC(=O)[C@@H](NC(=O)OCc1ccccc1)C(C)C [Z-VLL-CHO, Z-Val-Leu-Leu-CHO] (Cbz-Val-Leu-Leu-aldehyde)
- cleavage of fibrocystin or stability of proteolytic fragments ([2]; 15 μM Z-VLL-CHO): altered

Compound: C[N+](C)(C)CCOC(N)=O [carbachol]
- fibrocystin cleavage ([3]; 100 μM carbachol, HEK-293 cells without m3 receptor, 16 hours, FIG. 4E): only in HEK-293(m3) cells

Compound: O=C1CN(/N=C/c2ccc(-c3ccc([N+](=O)[O-])cc3)o2)C(O)=N1 [dantrolene]
- formation of FCA ([4]; 75 μM dantrolene): abolished
- increase in luciferase activity (FC-GV versus LDLR-GV) [5]: abolished

Compound: N.N.N.N.N.N.N.N.N.N.N.N.N.N.[Cl-].[Cl-].[Cl-].[Cl-].[Cl-].[Cl-].[O-2].[O-2].[Ru+3].[Ru+3].[Ru+4] [ruthenium red]
- formation of FCA ([4]; pretreatment with 200 μM ruthenium red): abolished

Compound: C/C=C(/C)C(=O)O[C@H]1C(C)=C2[C@H]([C@@H]1OC(=O)CCCCCCC)[C@@](C)(OC(C)=O)C[C@H](OC(=O)CCC)[C@@]1(O)[C@H]2OC(=O)[C@@]1(C)O [thapsigargin]
- generation of the FCA fragment ([4]; pretreatment with 0.1 μM thapsigargin, lysates after 24 hours): abolished

Compound: calphostin C
- expression levels of fibrocystin [2, 6]: did not alter
- fibrocystin proteolysis [2, 6]: dose-dependent inhibition
- caffeine-induced fibrocystin proteolysis ([3]; 0.5 μM calphostin with caffeine, HEK-293, FIG. 4C): prevented
- PMA-induced increase of proteolytic cleavage ([3]; pretreatment with 0.5 μM calphostin C, 100 nM PMA, HEK-293, FIG. 5A): prevented

Source: patent publication US20080045495A1, “Treatment of Patients with Cystic Disease by Alteration of Fibrocystin Proteolysis” (BOARD OF REGENTS, THE UNIVERSITY OF TEXAS SYSTEM, priority 2006, published 2008)
